Reference: ChEMBL document CHEMBL6109040, “Tyrosine kinase 2 inhibitors: Synthesis and applications in the treatment of autoimmune diseases” (Eur J Med Chem, 2025)
One block for each compound: values may come before it.

Tests used:
[1] = target: T1, Tyrosine-protein kinase JAK1 (Homo sapiens, UniProt P23458); assay: Binding affinity to recombinant human JAK1 JH2 (553 to 856 residues) pseudokinase domain assessed as inhibition constant by fluorescence polarization assay
[2] = target: T1, Tyrosine-protein kinase JAK1; assay: Inhibition of JAK1 (unknown origin)
[3] = Inhibition of IL-12 induced IFNgamma production in human NK92 cells; type: functional, cell-based, NK-92
[4] = target: T2, Non-receptor tyrosine-protein kinase TYK2 (Homo sapiens, UniProt P29597); assay: Binding affinity to recombinant human TYK2 JH2 (564 to 876 residues) pseudokinase domain assessed as dissociation constant by fluorescence polarization assay
[5] = target: T2, Non-receptor tyrosine-protein kinase TYK2; assay: Binding affinity to TYK2 JH2 (556 to 888 residues) pseudokinase domain (unknown origin) assessed as dissociation constant by KINOMEscan assay
[6] = Inhibition of IFNalpha-induced STAT5 phosphorylation in human PBMC cells; type: cell-based
[7] = target: Tyrosine-protein kinase JAK2 (Homo sapiens, UniProt O60674); assay: Binding affinity to JAK2 […] pseudokinase domain (unknown origin) assessed as dissociation constant by TR-FRET assay
[8] = target: T2, Non-receptor tyrosine-protein kinase TYK2; assay: Inhibition of TYK2 JH2 pseudokinase domain (unknown origin) by TR-FRET assay
[9] = AUC in BALB/c mouse at 5 mg/kg, po by LC-MS/MS analysis; type: ADME, organism-based; conditions: in vivo
[10] = Cmax in BALB/c mouse at 5 mg/kg, po by LC-MS/MS analysis; type: ADME, organism-based; conditions: in vivo

T2 sequence (P29597 whole entry, the tested form may be a part): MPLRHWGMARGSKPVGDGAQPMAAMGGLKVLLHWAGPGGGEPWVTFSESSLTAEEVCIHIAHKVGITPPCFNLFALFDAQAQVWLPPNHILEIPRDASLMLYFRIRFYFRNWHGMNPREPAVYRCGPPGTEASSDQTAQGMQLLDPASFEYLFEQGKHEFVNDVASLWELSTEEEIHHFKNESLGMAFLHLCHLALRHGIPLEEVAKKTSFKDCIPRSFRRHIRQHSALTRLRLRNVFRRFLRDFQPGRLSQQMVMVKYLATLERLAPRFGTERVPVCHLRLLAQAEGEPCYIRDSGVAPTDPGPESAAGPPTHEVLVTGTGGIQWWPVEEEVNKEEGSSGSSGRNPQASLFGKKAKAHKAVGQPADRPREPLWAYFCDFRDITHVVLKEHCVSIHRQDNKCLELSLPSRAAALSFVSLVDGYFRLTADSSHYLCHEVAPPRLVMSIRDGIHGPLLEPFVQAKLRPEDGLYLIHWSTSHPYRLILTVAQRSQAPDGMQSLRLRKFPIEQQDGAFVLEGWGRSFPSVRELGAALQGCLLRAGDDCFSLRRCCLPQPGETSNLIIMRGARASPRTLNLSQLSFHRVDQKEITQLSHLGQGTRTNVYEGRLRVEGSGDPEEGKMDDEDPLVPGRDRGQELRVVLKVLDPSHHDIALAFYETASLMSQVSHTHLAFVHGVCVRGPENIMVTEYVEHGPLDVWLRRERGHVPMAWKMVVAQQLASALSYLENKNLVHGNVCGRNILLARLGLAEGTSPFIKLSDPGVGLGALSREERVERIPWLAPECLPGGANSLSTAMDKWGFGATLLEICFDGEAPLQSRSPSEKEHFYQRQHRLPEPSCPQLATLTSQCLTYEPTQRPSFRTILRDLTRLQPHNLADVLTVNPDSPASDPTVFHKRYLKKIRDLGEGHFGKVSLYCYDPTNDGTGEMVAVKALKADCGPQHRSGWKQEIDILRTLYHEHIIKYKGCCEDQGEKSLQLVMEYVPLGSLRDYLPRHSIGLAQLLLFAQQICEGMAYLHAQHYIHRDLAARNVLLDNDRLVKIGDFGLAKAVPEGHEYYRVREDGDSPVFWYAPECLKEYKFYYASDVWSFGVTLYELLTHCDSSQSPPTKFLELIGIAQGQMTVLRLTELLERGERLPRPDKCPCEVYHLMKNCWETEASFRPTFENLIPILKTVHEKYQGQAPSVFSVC
T1 sequence (P23458 whole entry, the tested form may be a part): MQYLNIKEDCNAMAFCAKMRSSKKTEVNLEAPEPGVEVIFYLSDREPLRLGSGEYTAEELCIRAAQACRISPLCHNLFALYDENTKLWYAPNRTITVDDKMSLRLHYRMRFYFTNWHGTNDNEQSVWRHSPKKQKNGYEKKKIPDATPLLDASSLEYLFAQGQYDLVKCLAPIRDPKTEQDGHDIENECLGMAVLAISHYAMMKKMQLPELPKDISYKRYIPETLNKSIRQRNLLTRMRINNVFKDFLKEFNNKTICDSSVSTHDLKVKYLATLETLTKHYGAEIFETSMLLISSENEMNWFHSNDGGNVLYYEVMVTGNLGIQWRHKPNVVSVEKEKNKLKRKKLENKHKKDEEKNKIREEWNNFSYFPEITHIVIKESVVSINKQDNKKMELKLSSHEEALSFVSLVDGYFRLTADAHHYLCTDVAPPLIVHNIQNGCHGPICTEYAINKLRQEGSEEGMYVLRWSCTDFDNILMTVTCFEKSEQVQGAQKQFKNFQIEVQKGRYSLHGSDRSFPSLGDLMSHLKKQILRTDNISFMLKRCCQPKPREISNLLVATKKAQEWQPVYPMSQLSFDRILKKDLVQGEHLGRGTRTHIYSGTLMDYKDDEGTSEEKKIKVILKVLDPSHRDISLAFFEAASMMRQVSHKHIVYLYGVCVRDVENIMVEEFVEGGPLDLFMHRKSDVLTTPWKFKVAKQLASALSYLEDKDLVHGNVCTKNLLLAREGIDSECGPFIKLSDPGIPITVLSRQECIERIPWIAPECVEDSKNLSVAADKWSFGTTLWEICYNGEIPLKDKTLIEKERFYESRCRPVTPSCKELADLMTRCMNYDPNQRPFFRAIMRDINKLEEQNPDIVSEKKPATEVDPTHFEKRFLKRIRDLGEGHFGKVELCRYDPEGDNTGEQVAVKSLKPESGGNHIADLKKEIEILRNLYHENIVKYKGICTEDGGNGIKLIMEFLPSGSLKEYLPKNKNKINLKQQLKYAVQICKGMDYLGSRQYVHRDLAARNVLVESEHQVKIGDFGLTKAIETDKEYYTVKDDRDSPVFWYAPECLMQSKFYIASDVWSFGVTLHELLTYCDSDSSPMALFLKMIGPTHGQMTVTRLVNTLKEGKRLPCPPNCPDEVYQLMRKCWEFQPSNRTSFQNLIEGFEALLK
Tyrosine-protein kinase JAK2, sequence (O60674 whole entry, the tested form may be a part): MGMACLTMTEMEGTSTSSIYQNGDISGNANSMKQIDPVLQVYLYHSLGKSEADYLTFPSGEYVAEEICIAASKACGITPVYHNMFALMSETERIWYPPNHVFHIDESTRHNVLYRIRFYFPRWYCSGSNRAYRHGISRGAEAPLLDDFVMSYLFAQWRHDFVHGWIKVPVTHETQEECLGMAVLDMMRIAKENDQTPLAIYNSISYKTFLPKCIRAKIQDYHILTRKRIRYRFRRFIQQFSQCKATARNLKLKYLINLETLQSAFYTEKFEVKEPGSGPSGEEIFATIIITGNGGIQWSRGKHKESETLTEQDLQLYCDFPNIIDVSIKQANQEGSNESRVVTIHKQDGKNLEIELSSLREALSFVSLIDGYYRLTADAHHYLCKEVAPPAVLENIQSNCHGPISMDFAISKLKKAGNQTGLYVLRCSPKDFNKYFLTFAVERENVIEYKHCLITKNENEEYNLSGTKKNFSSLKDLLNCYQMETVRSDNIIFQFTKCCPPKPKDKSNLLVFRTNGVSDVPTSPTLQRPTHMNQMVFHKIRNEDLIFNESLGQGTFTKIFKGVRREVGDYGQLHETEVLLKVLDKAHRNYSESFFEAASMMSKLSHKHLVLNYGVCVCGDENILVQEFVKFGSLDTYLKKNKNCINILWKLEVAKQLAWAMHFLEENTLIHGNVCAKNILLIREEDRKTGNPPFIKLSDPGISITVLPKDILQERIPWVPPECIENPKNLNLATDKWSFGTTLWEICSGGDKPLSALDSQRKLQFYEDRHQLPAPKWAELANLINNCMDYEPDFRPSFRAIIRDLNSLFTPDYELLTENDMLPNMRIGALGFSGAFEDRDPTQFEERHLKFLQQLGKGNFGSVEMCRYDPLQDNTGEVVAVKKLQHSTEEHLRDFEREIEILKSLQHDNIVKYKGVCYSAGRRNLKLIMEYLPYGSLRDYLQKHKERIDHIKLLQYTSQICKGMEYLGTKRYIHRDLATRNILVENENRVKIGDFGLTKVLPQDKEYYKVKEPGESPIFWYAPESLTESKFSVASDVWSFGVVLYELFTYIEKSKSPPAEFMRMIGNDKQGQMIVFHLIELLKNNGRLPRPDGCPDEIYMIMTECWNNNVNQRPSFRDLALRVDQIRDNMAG

Structure (SMILES): CNC(=O)c1nnc(NC(=O)N2CCC2)cc1Nc1cccc(-c2ncn(C)n2)c1OC
IC50 [2]: 5900 nM

Structure (SMILES): NC(=O)c1nnc(-c2c(F)cccc2F)cc1Nc1ccc(N2CCOCC2)cn1
IC50 [3]: 80 nM

Structure (SMILES): CC(=O)Nc1cc(Nc2cccc(S(C)(=O)=O)n2)c(-c2ccccn2)cn1
IC50 [3]: 0.243 nM

Now from value to compound:

Ki [1]: > 10000 nM
Structure (SMILES): CO[C@@]1(c2cc(C)cc(-n3cc(C4CC4)c4cnc(NC(C)=O)cc43)n2)CCOC1

Kd [4]: 0.023 nM
Kd [5]: 0.022 nM
IC50 [6]: 1.7 nM
Structure (SMILES): CNc1cc2nn3c(cnc13)C(=O)N[C@H](C)COCc1ccc(OC)c(c1)N2

Kd [7]: > 10000 nM
IC50 [8]: < 1 nM
Structure (SMILES): CNC(=O)c1cnc2cc1Nc1cc(cc(-c3ccn(C)n3)c1OC)CCOCc1cccc(n1)N2

AUC [9]: 3650 ng·h/mL
Cmax [10]: 1160 ng/mL
Structure (SMILES): [2H]C([2H])([2H])N1Cc2nc(NC(=O)C3CC3)cc(Nc3cccc(-c4ncn(C)n4)c3OC)c2C1=O
